PubChem BioAssay (NCI)
“And” between values parts separate entries of the source, which are not always exact repeats. Equal values may be shown once.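 Growth conditions: 96-well plates. Treatment: test compound, 48 hours, 5 concentrations. Analysis: linear interpolation between bracketing concentrations; unreached endpoints set to highest concentration. The concentration for 50% growth inhibition is given as GI50. At the TGI there is no net growth.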

Tests used:
Assay in all cases: NCI-60 cell line screen, 48 h
LOX IMVI melanoma = test system: LOX IMVI melanoma
HOP-92 NSCLC = test system: HOP-92 NSCLC
SW-620 colon = test system: SW-620 colon
HT29 colon = test system: HT29 colon
NCI-H460 lung = test system: NCI-H460 lung
RXF 393 renal = test system: RXF 393 renal
SF-268 CNS = test system: SF-268 CNS
NCI-H522 lung = test system: NCI-H522 lung
ACHN renal = test system: ACHN renal
786-0 renal = test system: 786-0 renal
PC-3 prostate = test system: PC-3 prostate
T-47D breast = test system: T-47D breast
HS 578T breast = test system: HS 578T breast

Structure (SMILES) | TGI (LOX IMVI melanoma) | TGI (HOP-92 NSCLC) | TGI (SW-620 colon) | TGI (HT29 colon) | TGI (NCI-H460 lung) | TGI (RXF 393 renal) | TGI (SF-268 CNS) | TGI (NCI-H522 lung) | TGI (ACHN renal) | TGI (786-0 renal) | TGI (PC-3 prostate) | TGI (T-47D breast) | TGI (HS 578T breast) | GI50 (ACHN renal) | GI50 (HT29 colon) | GI50 (NCI-H460 lung) | GI50 (PC-3 prostate) | GI50 (SF-268 CNS) | GI50 (NCI-H522 lung)
CC(=O)OCC1OC(n2cc(F)c(=O)[nH]c2=O)C(NC(=O)OCc2ccccc2)C(OC(C)=O)C1OC(C)=O (stereo unspecified) | > 100 µM | > 100 µM | > 100 µM | > 100 µM | > 100 µM | > 100 µM | > 100 µM | > 100 µM | – | – | – | – | – | – | – | – | – | – | –
Cc1nc(CC#N)n[nH]1 | > 100 µM | > 100 µM | > 100 µM | > 100 µM | – | > 100 µM | > 100 µM | > 100 µM | > 100 µM | > 100 µM | > 100 µM | – | – | – | – | – | – | – | –
COc1ccc(-n2[nH]nc(C(N)=O)c2=O)cc1 | > 100 µM | – | > 100 µM | > 100 µM | > 100 µM | > 100 µM | > 100 µM | > 100 µM | > 100 µM | > 100 µM | > 100 µM | > 100 µM | > 100 µM | – | – | – | – | – | –
NC1=C(NC(=O)Cc2ccccc2F)C(=O)c2ccccc2C1=O | – | 98.1 µM | > 100 µM | > 100 µM | > 100 µM | 56.5 µM | > 100 µM | > 100 µM | > 100 µM | 98.2 µM | – | – | – | – | – | – | – | – | –
c1ccc2c(c1)c1c(n2CCOCCN2CCCC2)CCCC1 | 33.9 µM | 86.9 µM | 32.1 µM | 47.5 µM | 30.5 µM | – | > 100 µM | – | 42.1 µM | 29.6 µM | 66 µM | 61.9 µM | 45.3 µM | – | – | – | – | – | –
CC1(C)OC2[C@@H](CO[C@@]3([C@@H](O)CCO)OC(C)(C)O[C@@H]23)O1 (stereo partly specified) | > 100 µM | > 100 µM | > 100 µM | > 100 µM | > 100 µM | > 100 µM | > 100 µM | > 100 µM | > 100 µM | > 100 µM | > 100 µM | > 100 µM | – | – | – | – | – | – | –
CCOC(=O)c1nnsc1N/N=C\c1ccc([N+](=O)[O-])cc1 | – | – | > 100 µM | > 100 µM | > 100 µM | > 100 µM | > 100 µM | > 100 µM | > 100 µM | > 100 µM | > 100 µM | > 100 µM | > 100 µM | – | – | – | – | – | –
O=c1cc(CO)oc2c3c(cc(O)c12)OCC(COC1OC(CO)C(O)C(O)C1O)=CC3 (stereo unspecified) | > 100 µM | > 100 µM | > 100 µM | > 100 µM | > 100 µM | > 100 µM | > 100 µM | > 100 µM | > 100 µM | > 100 µM | – | – | – | – | – | – | – | – | –
CCOC(=O)c1[nH]c(Br)c(-c2ccc(OC)c(OC)c2)c1Br | – | – | 38.1 µM | 0.0667 µM and 0.308 µM | > 100 µM | 0.0424 µM | 35.7 µM | 0.349 µM | 22.6 µM | 11.7 µM | 23.7 µM | 72.5 µM | – | 0.239 µM | 0.0258 µM | 19.2 µM | 0.0112 µM | 1.03 µM | 0.0328 µM
COc1cc(C(C)O)c(S(=O)(=O)CC(C)O)nn1 (stereo unspecified) | > 100 µM | > 100 µM | > 100 µM | > 100 µM | > 100 µM | > 100 µM | – | > 100 µM | > 100 µM | – | – | – | > 100 µM | – | – | – | – | – | –
C=C1C(=O)O[C@H]2C[C@@]3(COC(C)=O)C=COC=C(COC(=O)C(C)C)C3CC12 (stereo partly specified) | > 100 µM | – | > 100 µM | > 100 µM | > 100 µM | > 100 µM | – | > 100 µM | > 100 µM | > 100 µM | > 100 µM | – | > 100 µM | – | – | – | – | – | –
O=C1c2cc(Cl)ccc2NC(=NC2CCCC2)C2CSCN12 (stereo unspecified) | > 100 µM | – | > 100 µM | > 100 µM | > 100 µM | > 100 µM | > 100 µM | > 100 µM | > 100 µM | > 100 µM | > 100 µM | > 100 µM | > 100 µM | – | – | – | – | – | –
Brc1ccc(C[P+]2(c3ccccc3)CCCCC2)cc1 | > 100 µM | – | > 100 µM | > 100 µM | > 100 µM | > 100 µM | – | > 100 µM | > 100 µM | > 100 µM | – | – | – | – | – | – | – | – | –
NC(=S)/N=C(/c1nc2ccc(Cl)cc2[nH]c1=O)C(O)c1ccccc1Cl (stereo unspecified) | > 100 µM | > 100 µM | > 100 µM | > 100 µM | > 100 µM | > 100 µM | > 100 µM | > 100 µM | > 100 µM | > 100 µM | – | – | – | – | – | – | – | – | –
Cc1ccc2c(c1)C(=O)c1nc(C)ccc1C2=O | > 100 µM | – | > 100 µM | 83 µM | – | > 100 µM | > 100 µM | 74.2 µM | > 100 µM | > 100 µM | > 100 µM | > 100 µM | > 100 µM | – | – | – | – | – | –
Cc1ccc(NC=O)c(-c2c(N)[nH]c(=S)[nH]c2=O)c1 | > 100 µM | > 100 µM | > 100 µM | > 100 µM | – | > 100 µM | > 100 µM | > 100 µM | > 100 µM | > 100 µM | – | > 100 µM | > 100 µM | – | – | – | – | – | –
CS(=O)(=O)c1nc(-c2cc3c(c(S(C)(=O)=O)n2)CCCC3)cc2c1CCCCC2 | – | – | > 100 µM | > 100 µM | – | > 100 µM | 85.1 µM | > 100 µM | > 100 µM | > 100 µM | > 100 µM | – | – | – | – | – | – | – | –
O=C1/C(=C\c2cccc(Oc3ccccc3)c2)SC(c2ccccc2)N1c1ccccc1 (stereo unspecified) | > 100 µM | > 100 µM | > 100 µM | > 100 µM | > 100 µM | > 100 µM | > 100 µM | > 100 µM | > 100 µM | > 100 µM | – | > 100 µM | > 100 µM | – | – | – | – | – | –
CCOC(=O)c1c(N=P(c2ccccc2)(c2ccccc2)c2ccccc2)nnc(-c2ccccc2)c1-c1ccccc1 | > 100 µM | > 100 µM | > 100 µM | > 100 µM | > 100 µM | > 100 µM | > 100 µM | > 100 µM | > 100 µM | > 100 µM | > 100 µM | > 100 µM | – | – | – | – | – | – | –
CCOc1ccc2[nH]c3c(C)c4ccncc4c(C)c3c2c1 | 2.49 µM | 3.07 µM | 1.75 µM | 2.18 µM | 1.68 µM | – | 2.71 µM | 2.77 µM | 2.25 µM | 2.2 µM | – | – | – | – | – | – | – | – | –
